For data set [1], the target named is T1, γ-secretase (Homo sapiens, UniProt P49768).
T1 construct: endogenous in cells; host or cells: SKNBE2 human neuroblastoma cells carrying hAPP 695 wild type
The data set is described as follows: Screening for γ-secretase-modulating activity: Aβ42 in cell supernatant (Alphalisa sandwich immuno-assay). The data set is classed as cell-based. Conditions: SKNBE2 human neuroblastoma cells carrying hAPP 695-wild type, overnight incubation. On the procedure: (§1) A) Screening of the Compounds of the Invention for γ-Secretase-Modulating Activity
(§2) Screening was carried out using SKNBE2 human neuroblastoma cells carrying the hAPP 695-wild type, grown in Dulbecco's Modified Eagle's Medium/Nutrient mixture F-12 (DMEM/NUT-mix F-12) (HAM) provided by Invitrogen (cat no. 10371-029) containing 5% Serum/Fe supplemented with 1% non-essential amino acids, 1-glutamine 2 mM, Hepes 15 mM, penicillin 50 U/ml (units/ml) and streptomycin 50 μg/ml. Cells were grown to near confluency.
(§3) The screening was performed using a modification of the assay as described in Citron et al (1997) Nature Medicine 3: 67. Briefly, cells were plated in a 384-well plate at 10^4 cells/well in Ultraculture (Lonza, BE12-725F) supplemented with 1% glutamine (Invitrogen, 25030-024), 1% non-essential amino acid (NEAA), penicillin 50 U/ml en streptomycin 50 μg/ml in the presence of test compound at different test concentrations. The cell/compound mixture was incubated overnight at 37° C., 5% CO2. The next day the media were assayed by two sandwich immuno-assays, for Aβ42 and Aβtotal.
(§4) Aβtotal and Aβ42 concentrations were quantified in the cell supernatant using the Aphalisa technology (Perkin Elmer). Alphalisa is a sandwich assay using biotinylated antibody attached to streptavidin coated donorbeads and antibody conjugated to acceptor beads. In the presence of antigen, the beads come into close proximity. The excitation of the donor beads provokes the release of singlet oxygen molecules that trigger a cascade of energy transfer in the acceptor beads, resulting in light emission. To quantify the amount of Aβ42 in the cell supernatant, monoclonal antibody specific to the C-terminus of Aβ42 (JRF/cAβ42/26) was coupled to the receptor beads and biotinylated antibody specific to the N-terminus of Aβ (JRF/AβN/25) was used to react with the donor beads. To quantify the amount of Aβtotal in the cell supernatant, monoclonal antibody specific to the N-terminus of Aβ (JRF/AβN/25) was coupled to the receptor beads and biotinylated antibody specific to the mid region of Aβ (biotinylated 4G8) was used to react with the donor beads.
To obtain the values reported in Table 3, the data are calculated as percentage of the maximum amount of amyloid Beta 42 measured in the absence of the test compound.
(§5) The sigmoidal dose response curves were analyzed using non-linear regression analysis with percentage of the control plotted against the log concentration of the compound. A 4-parameter equation was used to determine the IC50.

The target in data set [2] is T1, γ-secretase. Kind of data set: Screening for γ-secretase-modulating activity: Aβtotal in cell supernatant (Alphalisa sandwich immuno-assay). The data set is classed as cell-based. Conditions: SKNBE2 human neuroblastoma cells carrying hAPP 695-wild type, overnight incubation. On the procedure:
as §1, §2, §3, §4, §5

Structures are written as SMILES.

What is called IC50 is the concentration that gives 50% inhibition. A lower IC50 goes with greater potency. Consider `Cc1cn(-c2ccc3n(c2=O)C[C@H]2CC[C@H](c4cc(C(F)(F)F)cc(C(F)(F)F)c4)N2C3=O)cn1` [Compound 15, (3R,11aR)-3-[3,5-bis(trifluoromethyl)phenyl]-2,3,11,11a-tetrahydro-8-(4-methyl-1H-imidazol-1-yl)-1H-pyrido[1,2-a]pyrrolo[1,2-d]pyrazine-5,9-dione], for which the IC50 on γ-secretase [1] is 4.57 µM; against γ-secretase [2], over 10 µM.

In the case of `Cc1cn(-c2ccc3n(c2=O)C[C@@H]2CCC[C@H](c4cc(C(F)(F)F)cc(C(F)(F)F)c4)N2C3=O)cn1` (single isomer, unassigned) [Compound 12, 10-[3,5-bis(trifluoromethyl)phenyl]-6,6a,7,8,9,10-hexahydro-3-(4-methyl-1H-imidazol-1-yl)-dipyrido[1,2-a: 1′,2′-d]pyrazine-4,12-dione ((6aR, 10S) or (6aS, 10R))], the IC50 is 0.24 µM on γ-secretase [1] and over 10 µM against γ-secretase [2].

`Cc1cn(-c2ccc3n(c2=O)C[C@@H]2CC[C@@H](c4cc(C(F)(F)F)cc(C(F)(F)F)c4)N2C3=O)cn1` [Compound 16, (3S,11aS)-3-[3,5-bis(trifluoromethyl)phenyl]-2,3,11,11a-tetrahydro-8-(4-methyl-1H-imidazol-1-yl)-1H-pyrido[1,2-a]pyrrolo[1,2-d]pyrazine-5,9-dione]: the 50% inhibitory concentration (IC50) at γ-secretase [1] is 0.19 µM; against γ-secretase [2], over 10 µM.

For the compound `Cc1cn(-c2ccc3n(c2=O)C[C@@H]2CCC[C@H](c4cc(C(F)(F)F)cc(C(F)(F)F)c4)N2C3=O)cn1` (single isomer, unassigned) [Compound 13, 10-[3,5-bis(trifluoromethyl)phenyl]-6,6a,7,8,9,10-hexahydro-3-(4-methyl-1H-imidazol-1-yl)-dipyrido[1,2-a: 1′,2′-d]pyrazine-4,12-dione ((6aS, 10R) or (6aR, 10S)], the IC50 on γ-secretase [1] is over 10 µM.

Regarding `Cc1cn(-c2ccc3n(c2=O)C[C@@H]2CC[C@H](c4cc(C(F)(F)F)cc(C(F)(F)F)c4)N2C3=O)cn1` [Compound 18, (3R,11aS)-3-[3,5-bis(trifluoromethyl)phenyl]-2,3,11,11a-tetrahydro-8-(4-methyl-1H-imidazol-1-yl)-1H-pyrido[1,2-a]pyrrolo[1,2-d]pyrazine-5,9-dione], the IC50 against γ-secretase [1] and on γ-secretase [2] was over 10 µM in each case.

A word on the melting point: it is the temperature, or range, at which the solid turns liquid. `Cc1cn(-c2ccc3n(c2=O)C[C@@H]2CCC[C@@H](Cc4cc(C(F)(F)F)cc(C(F)(F)F)c4)N2C3=O)cn1` (single isomer, unassigned) [Compound 7, 10-[[3,5-bis(trifluoromethyl)phenyl]methyl]-6,6a,7,8,9,10-hexahydro-3-(4-methyl-1H-imidazol-1-yl)-dipyrido[1,2-a:1′,2′-d]pyrazine-4,12-dione ((6aR, 10R) or (6aS, 10S))] returned a melting point of 231.07 °C. On γ-secretase [1], this compound came in with a 50% inhibitory concentration (IC50) of 1.12 µM. The same compound showed an IC50 on γ-secretase [2] of over 10 µM.

Consider `Cc1cn(-c2ccc3n(c2=O)C[C@@H]2CC[C@H](Cc4cc(C(F)(F)F)cc(C(F)(F)F)c4)N2C3=O)cn1` (single isomer, unassigned) [Compound 3, 3-[[3,5-bis(trifluoromethyl)phenyl]methyl]-2,3,11,11a-tetrahydro-8-(4-methyl-1H-imidazol-1-yl)-1H-pyrido[1,2-a]pyrrolo[1,2-d]pyrazine-5,9-dione ((3S, 11aR) or (3R, 11aS))], for which the melting point turned out to be 241.17 °C. The compound also yielded an IC50 against γ-secretase [1] of 0.42 µM. At γ-secretase [2], the IC50 is over 10 µM.

For the compound `Cc1cn(-c2ccc3n(c2=O)C[C@H]2CC[C@H](c4ccc(Cl)c(Cl)c4)N2C3=O)cn1` [Compound 20, (3R,11aR)-3-(3,4-dichlorophenyl)-2,3,11,11a-tetrahydro-8-(4-methyl-1H-imidazol-1-yl)-1H-pyrido[1,2-a]pyrrolo[1,2-d]pyrazine-5,9-dione], the IC50 on γ-secretase [1] stood at 4.47 µM; at γ-secretase [2], 9.33 µM.

Regarding `Cc1cn(-c2ccc3n(c2=O)C[C@@H]2CCC[C@H](Cc4cc(C(F)(F)F)cc(C(F)(F)F)c4)N2C3=O)cn1` (single isomer, unassigned) [Compound 9, 10-[[3,5-bis(trifluoromethyl)phenyl]methyl]-6,6a,7,8,9,10-hexahydro-3-(4-methyl-1H-imidazol-1-yl)-dipyrido[1,2-a:1′,2-d]pyrazine-4,12-dione ((6aR, 10S) or (6aS, 10R))], the melting point turned out to be 246.53 °C. The compound also had a half-maximal inhibitory concentration (IC50) against γ-secretase [1] of 0.29 µM. Further, the half-maximal inhibitory concentration (IC50) against γ-secretase [2] is over 10 µM.

On to `Cc1cn(-c2ccc3n(c2=O)C[C@H]2CC[C@@H](c4ccc(Cl)c(Cl)c4)N2C3=O)cn1` [Compound 21, (3S,11aR)-3-(3,4-dichlorophenyl)-2,3,11,11a-tetrahydro-8-(4-methyl-1H-imidazol-1-yl)-1H-pyrido[1,2-a]pyrrolo[1,2-d]pyrazine-5,9-dione], for which the IC50 at γ-secretase [1] is 1.32 µM; against γ-secretase [2], over 15.1 µM.

In turn, `Cc1cn(-c2ccc3n(c2=O)C[C@@H]2CCC[C@H](Cc4cc(C(F)(F)F)cc(C(F)(F)F)c4)N2C3=O)cn1` (single isomer, unassigned) [Compound 8, 10-[[3,5-bis(trifluoromethyl)phenyl]methyl]-6,6a,7,8,9,10-hexahydro-3-(4-methyl-1H-imidazol-1-yl)-dipyrido[1,2-a:1′,2-d]pyrazine-4,12-dione ((6aS, 10R) or (6aR, 10S))] came in with a melting point of 247.06 °C. This compound also gave an IC50 at γ-secretase [1] of 0.11 µM. In addition, at γ-secretase [2], the IC50 was over 10 µM.

For the compound `Cc1cn(-c2ccc3n(c2=O)CC2CCC(Cc4cc(C(F)(F)F)cc(C(F)(F)F)c4)N2C3=O)cn1` (stereo not drawn) [Compound 1, 3-[[3,5-bis(trifluoromethyl)phenyl]methyl]-2,3,11,11a-tetrahydro-8-(4-methyl-1H-imidazol-1-yl)-1H-pyrido[1,2-a]pyrrolo[1,2-d]pyrazine-5,9-dione], the melting point stood at 234.89 °C. On γ-secretase [1], this compound came in with an IC50 of 0.16 µM. The compound also came in with a 50% inhibitory concentration (IC50) on γ-secretase [2] of over 10 µM.

In the case of `Cc1cn(-c2ccc3n(c2=O)C[C@@H]2CC[C@H](Cc4cc(C(F)(F)F)cc(C(F)(F)F)c4)N2C3=O)cn1` (single isomer, unassigned) [Compound 5, 3-[[3,5-bis(trifluoromethyl)phenyl]methyl]-2,3,11,11a-tetrahydro-8-(4-methyl-1H-imidazol-1-yl)-1H-pyrido[1,2-a]pyrrolo[1,2-d]pyrazine-5,9-dione ((3R, 11aS) or (3S, 11aR))], the melting point was 238.34 °C. For the same compound, on γ-secretase [1], the 50% inhibitory concentration (IC50) turned out to be 0.98 µM. The same compound gave an IC50 against γ-secretase [2] of over 10 µM.

`Cc1cn(-c2ccc3n(c2=O)C[C@@H]2CCC[C@@H](Cc4cc(C(F)(F)F)cc(C(F)(F)F)c4)N2C3=O)cn1` (single isomer, unassigned) [Compound 10, 10-[[3,5-bis(trifluoromethyl)phenyl]methyl]-6,6a,7,8,9,10-hexahydro-3-(4-methyl-1H-imidazol-1-yl)-dipyrido[1,2-a:1′,2-d]pyrazine-4,12-dione ((6aS, 10S) or (6aR, 10R))] yielded a melting point of 231.74 °C. 0.13 µM corresponded to half-maximal inhibition at γ-secretase [1] (IC50). Besides, at γ-secretase [2], the IC50 came out at 3.16 µM.

Regarding `Cc1cn(-c2ccc3n(c2=O)C[C@H]2CC[C@@H](c4cc(C(F)(F)F)cc(C(F)(F)F)c4)N2C3=O)cn1` [Compound 19, (3S,11aR)-3-[3,5-bis(trifluoromethyl)phenyl]-2,3,11,11a-tetrahydro-8-(4-methyl-1H-imidazol-1-yl)-1H-pyrido[1,2-a]pyrrolo[1,2-d]pyrazine-5,9-dione], the half-inhibitory concentration (IC50) is 0.72 µM against γ-secretase [1] and over 10 µM against γ-secretase [2].

For the compound `Cc1cn(-c2ccc3n(c2=O)C[C@@H]2CC[C@@H](Cc4cc(C(F)(F)F)cc(C(F)(F)F)c4)N2C3=O)cn1` (single isomer, unassigned) [Compound 2, 3-[[3,5-bis(trifluoromethyl)phenyl]methyl]-2,3,11,11a-tetrahydro-8-(4-methyl-1H-imidazol-1-yl)-1H-pyrido[1,2-a]pyrrolo[1,2-d]pyrazine-5,9-dione ((3R, 11aR) or (3S, 11aS))], the melting point was 255.25 °C. This compound also yielded an IC50 on γ-secretase [1] of over 10 µM. On γ-secretase [2], this compound registered an IC50 of over 10 µM.

The values are drawn from patent US10112943B2, “Substituted imidazoles as gamma secretase modulators” (Janssen Pharmaceutica NV, priority 2012, dated 2018).
